The values that follow come from patent publication US4690930A, “Pyrazolo[4,3-c]quinoline-3-one and imidazo[4,3-c]cinnolin-3-one derivatives and their use as psychotropic agents” (Shionogi & Co., Ltd, priority 1984, dated 1987).

For one experiment, the target named is benzodiazepine receptor. Description: Binding test to benzodiazepine receptor (inhibition of specific binding of tritium labeled diazepam). Set-up: species or system Wistar rats (cerebral cortex). The note with it: 2 nM tritium labeled diazepam, rat cerebral cortex, 0° C., 60 minutes; Ki calculated from IC50. The protocol: Binding test to benzodiazepine receptor
This test was carried out in the modified method of Moeler & Okada, Science, 198, 849-851 (1977).
Receptor preparation was provided from the cerebral cortex of Wistar rats (male, 11 to 13 weeks age). Inhibitory action of the test compound on the specific binding of tritium labeled diazepam to the receptor was evaluated as follows. 2 nM tritium labeled diazepam and an aqueous solution of the test compound at 5 or 6 concentrations were incubated with the receptor preparation at 0° C. for 60 minutes. The 50% inhibitory concentration (IC50) was measured by the concentration-response curve.
The inhibitory constant (Ki) was calculated according to the following equation, in which Kd is the dissociation constant of the tritium labeled diazepam and L is the concentration of the labeled ligand. [formula]
By Ki is commonly meant the equilibrium dissociation constant of an inhibitor or competing ligand from its target. Turning to `Cc1ccc2c3nn(-c4ccc(C)s4)c(=O)c-3c[nH]c2c1` [Ic1 -10], the Ki was 1440 pM.

Take `Cc1csc(-n2nc3c4ccccc4[nH]cc-3c2=O)c1` [Ic1 -12]: the Ki is 380 pM.

Consider `O=c1c2c[nH]c3ccccc3c-2nn1-c1ccsc1` [Ic2 -1, 2-(3-Thienyl)-2,5-dihydro-3H-pyrazolo[4,3-c]quinolin-3-one], for which the Ki was 290 pM.

With `Cc1cc(-n2nc3c4ccccc4[nH]cc-3c2=O)cs1` [Ic2 -2, 2-[3-(5-methylthienyl)]-2,5-dihydro-3H-pyrazolo[4,3-c]quinolin-3-one], the Ki is 450 pM.

With `Cc1ccc(-n2nc3c4ccccc4[nH]cc-3c2=O)s1` [Ic1 -1, 2-[2-(5-Methylthienyl)]-2,5-dihydro-3H-pyrazolo[4,3-c]quinolin-3-one], the inhibition constant (Ki) was 350 pM.

Consider `COc1ccc2[nH]cc3c(=O)n(-c4csc(C)c4)nc-3c2c1` [Ic2 -5, 2-[3-(5-methylthienyl)]-8-methoxy-2,5-dihydro-3H-pyrazolo[4,3-c]quinolin-3-one], for which the Ki was 390 pM.

Consider `Cc1cc(-n2nc3c4cc(Cl)ccc4[nH]cc-3c2=O)cs1` [Ic2 -6], for which the Ki was 580 pM.

Regarding `Cc1ccc(-n2nc3c4cc(Cl)ccc4[nH]cc-3c2=O)s1` [Ic1 -8], the Ki is 310 pM.

With `CCc1ccc(-n2nc3c4ccccc4[nH]cc-3c2=O)s1` [Ic1 -2], the inhibition constant Ki was 1510 pM.

`Cc1cc(-n2nc3c4ccccc4[nH]cc-3c2=O)sc1C` [Ic1 -3]: the Ki was 630 pM.

With `COc1ccc2[nH]cc3c(=O)n(-c4ccc(C)s4)nc-3c2c1` [Ic1 -7], the inhibition constant (Ki) is 170 pM.

With `Cc1ccc2c3nn(-c4csc(C)c4)c(=O)c-3c[nH]c2c1` [Ic2 -8], the inhibition constant (Ki) is 1240 pM.

Take `CCCCc1ccc(-n2nc3c4ccccc4[nH]cc-3c2=O)s1` [Ic1 -5]: the Ki is 1530 pM.

Regarding `Cc1ccc(-n2nc3c4cc(F)ccc4[nH]cc-3c2=O)s1` [Ic1 -9], the Ki was 140 pM.

As to `Cc1cc(-n2nc3c4cc(F)ccc4[nH]cc-3c2=O)cs1` [Ic2 -7], the Ki is 170 pM.

In the case of `Cc1ccc2[nH]cc3c(=O)n(-c4ccc(C)s4)nc-3c2c1` [Ic1 -6], the Ki is 220 pM.

As for `Cc1ccc2[nH]cc3c(=O)n(-c4csc(C)c4)nc-3c2c1` [Ic2 -4], the Ki was 300 pM.

Take `Cc1cc(-n2nc3c4ccc(Cl)cc4[nH]cc-3c2=O)cs1` [Ic2 -9]: the Ki was 960 pM.

Regarding `Cc1ccc(-n2nc3c4ccc(Cl)cc4[nH]cc-3c2=O)s1` [Ic1 -11], the inhibition constant (Ki) was 1110 pM.

For a further experiment, the system named is male mice. Description: Inverse agonist activity (oral compound 1 hour before subcutaneous pentylenetetrazol, mice). Type of experiment: in vivo. The note with it: Mus musculus, 1 hour before s.c. 75 mg/kg pentylenetetrazol (subconvulsive dose), 8-16 male mice a group, Probit method, read-out: ED50 (dose at which 50% of mice died). The protocol: Inverse agonist activity was evaluated by the following procedure.
The test compound was administered orally to 8-16 male mice a group, 1 hour before a subcutaneous administration of 75 mg/kg of pentylenetetrazol (a subconvulsive dose). The dose (ED50) at which 50% of mice died, was calculated by the Probit method.
For orientation: ED50 means the dose that gives a 50% effect, or the effect in half of the subjects. Regarding `O=c1c2c[nH]c3ccccc3c-2nn1-c1nccs1` [Control 2, reference compound], the ED50 turned out to be 87 mg/kg.

For the compound `Cc1cc(-n2nc3c4ccccc4[nH]cc-3c2=O)cs1` [Ic2 -2, 2-[3-(5-methylthienyl)]-2,5-dihydro-3H-pyrazolo[4,3-c]quinolin-3-one], the ED50 came to 1.67 mg/kg.
